# Like-named read-outs stand apart in the source and are kept apart here.
# Legend:
# [1] = target: T1, chymotrypsin-like activity of rabbit muscle 20S proteasomes (Oryctolagus cuniculus, UniProt G1T4Q9); assay: Inhibition of chymotrypsin-like activity of purified rabbit muscle 20S proteasome (suc-LLVY-AMC); format: biochemical
# T1 sequence (G1T4Q9 1-263): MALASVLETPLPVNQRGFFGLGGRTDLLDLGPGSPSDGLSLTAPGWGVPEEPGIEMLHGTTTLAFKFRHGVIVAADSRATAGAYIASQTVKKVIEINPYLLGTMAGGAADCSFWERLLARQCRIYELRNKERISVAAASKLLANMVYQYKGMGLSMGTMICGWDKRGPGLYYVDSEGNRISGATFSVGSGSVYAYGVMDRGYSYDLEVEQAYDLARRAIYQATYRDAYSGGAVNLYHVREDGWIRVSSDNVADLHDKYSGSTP
# Method: This peptide substrate is specific for the chymotrypsin-like enzyme activity of the proteasome.
# Omuralide was prepared as a 10 mM stock in DMSO and stored in 5 μL aliquots at −80° C. […] The assay measures the hydrolysis of Suc-LLVY-AMC into Suc-LLVY and AMC. The released coumarin (AMC) was measured fluorometrically by using λex=390 nm and λem=460 nm. The assays were performed in a microtiter plate (Corning 3904), and followed kinetically with measurements every five minutes. The instrument used was a Thermo Lab Systems Fluoroskan, with the incubation chamber set to 37° C. The assays were performed according to the manufacturer's protocol, with the following changes. The proteasome was activated as described with SDS, and held on ice prior to the assay. […] Ten microliters of each dose were added in triplicate to the assay plate, and 190 μL of the activated proteasome was added and mixed. The samples were pre-incubated in the Fluoroskan for 5 minutes at 37° C. Substrate was added and the kinetics of AMC were followed for one hour.
# [2] = system: MES-SA cells; assay: Cell growth inhibition (resazurin, 48 hours), MES-SA
# [3] = target: PGPH (caspase-like) activity of rabbit muscle 20S proteasomes (Oryctolagus cuniculus, UniProt A0A5F9DQW2); assay: Inhibition of caspase-like (PGPH) activity of 20S proteasome (Z-LLE-AMC); format: biochemical; settings: Table 3; mean EC50; purified rabbit 20S proteasomes
# PGPH (caspase-like) activity of rabbit muscle 20S proteasomes, sequence (A0A5F9DQW2 1-212): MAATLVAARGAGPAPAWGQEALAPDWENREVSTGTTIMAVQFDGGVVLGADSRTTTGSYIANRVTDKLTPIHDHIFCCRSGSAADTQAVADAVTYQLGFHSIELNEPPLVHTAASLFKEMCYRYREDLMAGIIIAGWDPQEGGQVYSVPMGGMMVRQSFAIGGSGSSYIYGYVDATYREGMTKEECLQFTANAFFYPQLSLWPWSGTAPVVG
# Method: A commercially available fluorogenic substrate specific for the PGPH activity was used instead of the chymotrypsin substrate supplied in the proteasome assay kit described above.
# The substrate Z-LLE-AMC was prepared as a 20 mM stock solution in DMSO, stored at −20° C. The source of the proteasomes was the commercially available kit from Calbiochem (Cat. #539158). As with the chymotrypsin substrate, the proteasome can cleave Z-LLE-AMC into Z-LLE and free AMC. The activity can then be determined by measuring the fluorescence of the released AMC (λex=390 nm and λem=460 nm). The proteasomes were activated with SDS and held on ice as per manufacturer's recommendation. […] The series was diluted 20-fold with assay buffer and preincubated with the proteasomes as described for the chymotrypsin-like activity. After addition of substrate, the samples were incubated at 37° C., and release of the fluorescent AMC was monitored in a fluorimeter. All data were collected and plotted as the mean of triplicate points. […] As before, the model chosen was a sigmoidal dose-response, with a variable slope.
# [4] = LogD7.4 determination; settings: pH 7.4
# Source text: (§1) These studies consisted of solubility assessment, LogD^7.4 determination and a preliminary screen to detect cytochrome P450 enzyme inhibition.
# [5] = system: Jurkat cells; assay: Cytotoxicity against Jurkat cells; format: cell-based, human
# [6] = system: tumor cell lines; assay: Cytotoxicity / growth inhibition, summary over several cell lines; settings: 48 h, read-out: EC50 values against RPMI 8226 and the prostate cell lines
# [7] = as above; settings: human, mouse
# [8] = system: PANC-1 cells; assay: Cell growth inhibition (resazurin, 48 hours), PANC-1; format: cell-based; settings: Table 2, PANC-1, human pancreatic carcinoma, read-out: EC50 (nM), mean ± SD
# [9] = system: PARP and Pro-Caspase 3 cleavage in PC-3 cells; assay: Cleavage of PARP and Pro-Caspase 3 (western blot), PC-3; format: cell-based, human; settings: 100 nM, 0, 8 or 24 hours
# Method: (§2) Total protein lysates were made and 20 μg of the lysates were then resolved under reducing/denaturing conditions and blotted onto nitrocellulose. The blots were then probed with anti-PARP or anti-caspase 3 antibodies followed by stripping and reprobing with an anti-actin antibody.
# [10] = system: HEK293 cells; assay: Cell growth inhibition (resazurin, 48 hours), HEK293; format: cell-based; settings: Table 2, HEK293, human embryonic kidney, read-out: EC50 (nM), mean ± SD
# [11] = system: MIA PaCa-2 cells; assay: Cell growth inhibition (resazurin, 48 hours), MIA PaCa-2; format: cell-based; settings: Table 2, MIA PaCa-2, human pancreatic carcinoma, read-out: EC50 (nM), mean ± SD
# [12] = system: CCD-27sk cells; assay: Cytotoxic activity against normal human fibroblasts; format: cell-based; settings: 48h, panel of b226
# [13] = system: PARP and Pro-Caspase 3 cleavage in RPMI 8226 cells; assay: Cleavage of PARP and Pro-Caspase 3 (western blot), RPMI 8226; format: cell-based, human; settings: 100 nM, 0, 8 or 24 hours
# Method: as §2
# 25 μg of the lysates were then resolved under reducing/denaturing conditions and blotted onto nitrocellulose. The blots were then probed with anti-PARP or anti-caspase 3 antibodies followed by stripping and reprobing with an anti-actin antibody.
# [14] = target: CYP2C19 (Homo sapiens, UniProt P33261); assay: Preliminary P450 inhibition screen, CYP2C19
# CYP2C19, sequence (P33261 whole entry): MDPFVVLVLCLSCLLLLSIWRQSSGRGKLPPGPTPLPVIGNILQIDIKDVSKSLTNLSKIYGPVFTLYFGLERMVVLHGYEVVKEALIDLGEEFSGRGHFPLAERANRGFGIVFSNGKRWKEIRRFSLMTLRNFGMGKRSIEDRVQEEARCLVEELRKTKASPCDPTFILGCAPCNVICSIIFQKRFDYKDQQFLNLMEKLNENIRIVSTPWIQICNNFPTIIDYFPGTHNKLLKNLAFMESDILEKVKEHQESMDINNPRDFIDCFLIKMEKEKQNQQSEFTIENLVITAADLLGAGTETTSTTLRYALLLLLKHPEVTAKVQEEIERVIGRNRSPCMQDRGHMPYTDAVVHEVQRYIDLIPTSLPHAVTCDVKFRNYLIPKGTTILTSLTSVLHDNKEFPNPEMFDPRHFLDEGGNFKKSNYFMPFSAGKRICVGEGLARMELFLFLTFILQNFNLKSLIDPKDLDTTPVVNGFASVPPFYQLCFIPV
# Source text: as §1
# [15] = system: Caspase-3 activity in Jurkat cells; assay: Caspase-3 activity assay in Jurkat cells; format: cell-based, human; settings: EC50 concentration, 19 hours
# Method: Jurkat cells were plated at 2×10^6 cells/3 mL per well in a 6-well plate and incubated at 37° C., 5% (v/v) C02 and 95% (v/v) humidity. […] Bhalla, et al., Blood 82:3133 (1993). […] Cells treated with 0.25% DMSO served as the negative control. The cells were collected by centrifugation and the media removed. Cell pellets were processed for the Caspase-3 activity assay as described in the manufacturer's protocol (EnzChek Caspase-3 Assay Kit from Molecular Probes (E-13183; see Appendix G, which form a part of this application and is also available at hypertext transfer protocol on the worldwide web at “probes.com/media/pis/mp13183.pdf.”. In brief, cell pellets were lysed on ice, mixed with the EnzChek Caspase-3 components in a 96-well plate, and then incubated in the dark for 30 minutes prior to reading fluorescence of cleaved benzyloxycarbonyl-DEVD-AMC using a Packard Fusion with λex=485 nm and λem=530 nm filters. Protein concentrations for lysates were determined using the BCA Protein Assay Kit (Pierce) and these values were used for normalization.
# [16] = Table 3, mean EC50, purified rabbit 20S proteasomes, read-out: EC50 Values, Chymotrypsin-like
# [17] = Homo sapiens, MES-SA, read-out: EC50 (nM) MES-SA, Table 16
# [18] = read-out: EC50 (nM) MES-SA, Table 16
structure (smiles),measurement,setting,value
C[C@@]12OC(=O)[C@]1([C@@H](O)C1CCCCC1)NC(=O)[C@@H]2CCBr [Formula II-4],EC50,[1]; [16],14.2 nM
same,EC50,"[1]; representative experiment, Example 44 (FIG. 46, 47), read-out: EC50, chymotrypsin-like activity of the proteasome",15 nM
same,EC50,[2]; [17],163 nM
C[C@@]12OC(=O)[C@]1([C@@H](O)[C@@H]1C=CCCC1)NC(=O)[C@@H]2CCBr [Formula II-18],EC50,[1]; [16],2.2 nM
same,EC50,[3],250 nM
same,EC50,[2]; [17],22 nM
same,EC50,[2]; [18],17 nM
"C[C@@]12OC(=O)[C@]1([C@@H](O)[C@@H]1C=CCCC1)NC(=O)[C@@H]2CCCl [Formula II-16, Salinosporamide A]",LogD7.4,[4],2.4
same,more potent than Omuralide,[1]; 20S proteasome assay EC50 values,approximately 40 fold
same,EC50,"[5]; Homo sapiens, Jurkat",10 nM
same,% max cell kill,"[5]; Table 5, Jurkat Cells",97%
same,EC50,[6],10 to 37 nM
same,EC50 at 48 h,[7],10 to 200 nM
same,EC50,[8],60 nM
same,cleavage of PARP,[9],noticeable at 24 hours
same,cleavage of Pro-Caspase 3,[9],not detected
same,EC50,[10],47 nM
same,EC50,[11],46 nM
same,EC50,[12],196 nM
same,induction of PARP cleavage,[13],noticeable at 8 hours and complete by 24 hours
same,inhibition at 10 µM,[14],22%
same,EC50,"[2]; Homo sapiens, MES-SA, read-out: EC50 (nM), mean",20 ± 5 nM
same,"% cytotoxicity, mean ± SD","[2]; Table 7, MES-SA",94 ± 1%
same,Caspase-3 activity,[15],activation of Caspase-3
C[C@@]12OC(=O)[C@]1([C@@H](O)C1CCCCC1)NC(=O)[C@@H]2CCCl [Formula II-2],EC50,"[1]; EC50, chymotrypsin-like activity of the proteasome",18.5 nM
same,EC50,"[1]; EC50 Values, Chymotrypsin-like",18 nM
same,EC50,[3],1500 nM
same,EC50,[2]; [17],193 nM
same,EC50,[2]; [18],155 nM

# Source: patent publication US20050049294A1, “Methods of using [3.2.0] heterocyclic compounds and analogs thereof” (priority 2003, published 2005)
